The record followed here is patent US9315517B2, “Imidazol-piperidinyl derivatives as modulators of kinase activity” (Merck Patent GmbH, priority 2012, dated 2016).

For one experiment, the target named is T1, His-AKT (Full Length) (Homo sapiens, UniProt P31749).
T1 construct: 0.1 ng/μl His-AKT (Full Length); His; purchased Invitrogen P2999
The experiment in a line: AKT enzyme assay. It is filed as biochemical. The settings on record: enzyme inhibition; 160 uM ATP, 90 min at 25° C., Caliper mobility shift. The method, then: (§1) The IC50 values reported for the compounds in the Experimental section were derived from the following protocol for the p70S6K and AKT enzyme assays.
A TTP Mosquito liquid handling instrument was used to place 125 nl of the appropriate concentration of inhibitor in 100% DMSO (for a dose response curve calculation) into each well of a 384-well plate. To this reaction components were added to a final volume of 12.5 μl: • 0.1 ng/μl His-AKT (Full Length), (Invitrogen, Part # P2999, Lot # 641228C). • 160 uM ATP (Fluke, 02055) • 1 mM DTT (Sigma, D0632) • 1 mM MgCl2 (Sigma, M1028) • 1 μM substrate peptide (sequence FITC-AHA-GRPRTSSFAEG-NH2), synthesized by Tufts Peptide Synthesis service. • 100 mM HEPES pH 7.5 (Calbiochem, 391338) • 0.015% Brij-35 (Sigma, B4184)
The reaction was incubated for 90 min at 25° C., and then stopped by the addition of 70 μl of Stop buffer (100 mM HEPES pH 7.5, 0.015% Brij-35, 10 mM EDTA (Sigma, E7889)).
The plate was read on a Caliper LC 3000 in an Off-Chip mobility shift assay format, using the following parameters for a 12-sipper chip: screening pressure −2.3 psi, upstream voltage −500, and downstream voltage −3000. These conditions caused unphosphorylated substrate and phosphorylated product peptide to resolve as separate peaks allowing direct measurement of percentage of conversion of substrate to product. The percent conversion was plotted against concentration of inhibitor to produce a sigmoidal dose response curve, from which an IC50 was calculated.

In experiment [1] the target is T2, P70S6K (T412E mutant, Millipore) (Homo sapiens, UniProt P23443, T412E).
T2 construct: purchased Millipore
The experiment is described as follows: P70S6K enzyme assay. In kind it is biochemical. The conditions noted are these: enzyme inhibition; 24 μM ATP, 90 min at 25° C., Caliper mobility shift. The method, then: as §1
P70S6K inhibitor compounds were diluted and plated in 96 well plates. A reaction mixture including the following components was then added to the compound plate to initiate the enzyme reaction; P70S6K (3 nM, T412E mutant, Millipore) was mixed with 24 μM ATP in an assay buffer containing 100 mM Hepes (pH 7.5), 5 mM MgCl2, 1 mM DTT, 0.015% Brij and 1 μM of the substrate peptide FITC-AHA-AKRRRLSSLRA-OH (derived from the S6 ribosomal protein sequence, FITC=fluorescein isothiocyanate, AHA=6-aminohexanoic acid). The reaction was incubated for 90 min at 25° C., before the addition of 10 mM EDTA to stop the reaction. The proportion of substrate and product (phosphorylated) peptide was analysed on a Caliper Life Sciences Lab Chip 3000, using a pressure of −1.4 psi, and upstream and downstream voltages of −3000 and −700 respectively. Product peaks were resolved before substrate peaks on the resulting chromatograms.

Structures are written as SMILES.

T1 sequence (P31749 whole entry): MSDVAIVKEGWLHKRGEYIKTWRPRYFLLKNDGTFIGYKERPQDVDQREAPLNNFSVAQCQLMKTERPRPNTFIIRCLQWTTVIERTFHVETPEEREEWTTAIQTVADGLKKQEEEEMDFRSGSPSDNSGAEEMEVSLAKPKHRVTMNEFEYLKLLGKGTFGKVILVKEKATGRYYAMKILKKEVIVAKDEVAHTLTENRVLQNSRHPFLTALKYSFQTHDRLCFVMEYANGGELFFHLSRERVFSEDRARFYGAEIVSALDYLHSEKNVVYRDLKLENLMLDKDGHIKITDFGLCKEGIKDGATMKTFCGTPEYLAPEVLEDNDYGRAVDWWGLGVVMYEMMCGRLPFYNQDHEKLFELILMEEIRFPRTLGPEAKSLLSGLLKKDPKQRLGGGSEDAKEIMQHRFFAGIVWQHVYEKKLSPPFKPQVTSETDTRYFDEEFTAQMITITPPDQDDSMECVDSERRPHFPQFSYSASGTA
T2 sequence (P23443 whole entry T412E): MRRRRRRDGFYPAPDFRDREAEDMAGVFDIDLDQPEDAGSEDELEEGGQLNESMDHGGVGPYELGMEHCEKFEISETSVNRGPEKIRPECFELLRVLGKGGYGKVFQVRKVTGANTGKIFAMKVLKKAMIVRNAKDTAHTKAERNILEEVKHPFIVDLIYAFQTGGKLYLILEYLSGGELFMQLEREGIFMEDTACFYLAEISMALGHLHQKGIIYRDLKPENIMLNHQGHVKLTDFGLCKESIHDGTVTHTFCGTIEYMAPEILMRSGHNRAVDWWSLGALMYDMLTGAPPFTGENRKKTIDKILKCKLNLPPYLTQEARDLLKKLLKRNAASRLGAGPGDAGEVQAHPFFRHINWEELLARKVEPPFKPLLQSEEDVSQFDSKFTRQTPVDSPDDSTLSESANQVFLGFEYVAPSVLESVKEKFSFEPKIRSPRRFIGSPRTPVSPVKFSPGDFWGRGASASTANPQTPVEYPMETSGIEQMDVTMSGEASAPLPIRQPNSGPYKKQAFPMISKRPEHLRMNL

As to `CN(C)CCn1cc(-c2ccc(F)c(C(F)(F)F)c2)nc1C1CCN(c2ncnc3c2NC(=O)CN3)CC1` [Compound A41, 4-{4-[4-(4-fluoro-3-trifluoromethyl-phenyl)-1-(2-dimethyamine-1-yl-ethyl)-1H-imidazol-2-yl]-piperidin-1-yl}-7,8-dihydro-5H-pteridin-6-one], the half-maximal inhibitory concentration (IC50) (on His-AKT (Full Length); in experiment [1]) was < 0.025 µM each time.

Regarding `COc1cc(-c2cn(CCN(C)C)c(C3CCN(c4ncnc5c4CCCN5)CC3)n2)ccc1F` [Compound A34, (2-{4-(4-Fluoro-3-methoxy-phenyl)-2-[1-(5,6,7,8-tetrahydro-pyrido[2,3-d]pyrimidin-4-yl)-piperidin-4-yl]-imidazol-1-yl}-ethyl)-dimethylamine], the IC50 (at His-AKT (Full Length); in experiment [1]) was < 0.025 µM throughout.

On to `CN(C)CCn1cc(-c2ccnc(C(F)(F)F)c2)nc1C1CCN(c2ncnc3c2CCC3)CC1` [Compound A18, {2-[2-[1-(6,7-Dihydro-5H-cyclopentapyrimidin-4-yl)-piperidin-4-yl]-4-(2-trifluoromethyl-pyridin-4-yl)-imidazol-1-yl]-ethyl}-dimethylamine], for which the half-inhibitory concentration (IC50) (commonly the concentration needed to halve the response being measured) on His-AKT (Full Length) was 0.101 to 0.5 µM; in experiment [1], 0.026 to 0.1 µM.

Turning to `FC(F)(F)c1cc(-c2cn(CCN3CCC3)c(C3CCN(c4ncnc5c4OCCN5)CC3)n2)ccn1` [Compound A2, 4-(4-(1-(2-(azetidin-1-yl)ethyl)-4-(2-(trifluoromethyl)pyridin-4-yl)-1H-imidazol-2-yl)piperidin-1-yl)-7,8-dihydro-6H-pyrimido[5,4-b][1,4]oxazine], the figures for the IC50 (on His-AKT (Full Length); in experiment [1]) were 0.026 to 0.1 µM and < 0.025 µM, respectively.

For `CN(C)CCn1cc(-c2ccccc2)nc1C1CCN(c2ncnc3c2NC(=O)CN3)CC1` [Compound A53, 4-{4-[4-(Phenyl)-1-(2-dimethylamin-1-yl-ethyl)-1H-imidazol-2-yl]-piperidin-1-yl}-7,8-dihydro-5H-pteridin-6-one], the half-inhibitory concentration (IC50) (on His-AKT (Full Length); in experiment [1]) was > 1 µM throughout.

With `COc1ccc(-c2cn(CCN3CCCC3)c(C3CCN(c4ncnc5c4NC(=O)CN5)CC3)n2)cc1` [Compound A61, 4-{4-[4-(4-MethoxyPhenyl)-1-(2-pyrrolidin-1-yl-ethyl)-1H-imidazol-2-yl]-piperidin-1-yl}-7,8-dihydro-5H-pteridin-6-one], the IC50 on His-AKT (Full Length) is 0.501 to 1 µM; in experiment [1], > 1 µM.

Turning to `COc1ccc(-c2cn(CCN(C)C)c(C3CCN(c4ncnc5c4NC(=O)CN5)CC3)n2)cc1` [Compound A52, 4-{4-[4-(4-Methoxyl-henyl)-1-(2-dimethylamin-1-yl-ethyl)-1H-imidazol-2-yl]-piperidin-1-yl}-7,8-dihydro-5H-pteridin-6-one], the half-inhibitory concentration (IC50) (on His-AKT (Full Length); in experiment [1]) was > 1 µM each time.

Consider `O=C1CNc2ncnc(N3CCC(c4nc(-c5ccccc5)cn4CCN4CCCC4)CC3)c2N1` [Compound A45, 4-{4-[4-Phenyl-1-(2-pyrrolidin-1-yl-ethyl)-1H-imidazol-2-yl]-piperidin-1-yl}-7,8-dihydro-5H-pteridin-6-one], for which the 50% inhibitory concentration (IC50) at His-AKT (Full Length) is 0.501 to 1 µM; in experiment [1], 0.101 to 0.5 µM.

For `O=C1CNc2ncnc(N3CCC(c4nc(-c5ccc(F)c(C(F)(F)F)c5)cn4CCN4CCCC4)CC3)c2N1` [Compound A39, 4-{4-[4-(4-fluoro-3-trifluoromethyl-phenyl)-1-(2-pyrrolidin-1-yl-ethyl)-1H-imidazol-2-yl]-piperidin-1-yl}-7,8-dihydro-5H-pteridin-6-one], the IC50 (on His-AKT (Full Length); in experiment [1]) was < 0.025 µM each time.

In the case of `CN(C)CCn1cc(-c2cccc(Cl)c2)nc1C1CCN(c2ncnc3c2NC(=O)CN3)CC1` [Compound A47, 4-{4-[4-(3-ChloroPhenyl)-1-(2-dimethylamin-1-yl-ethyl)-1H-imidazol-2-yl]-piperidin-1-yl}-7,8-dihydro-5H-pteridin-6-one], the concentration for half-maximal inhibition (IC50) (at His-AKT (Full Length); in experiment [1]) was 0.101 to 0.5 µM in each case.

Take `CN(C)CCn1cc(C(F)(F)F)nc1C1CCN(c2ncnc3c2NC(=O)CN3)CC1` [Compound A55, 4-{4-[4-(4-trifouromethyl)-1-(2-dimethylamino-1-yl-ethyl)-1H-imidazol-2-yl]-piperidin-1-yl}-7,8-dihydro-5H-pteridin-6-one]: the concentration for half-maximal inhibition (IC50) (on His-AKT (Full Length); in experiment [1]) was > 1 µM each time.

Regarding `CN(C)CCn1cc(-c2ccnc(C(F)(F)F)c2)nc1C1CCN(c2ncnc3c2OCCN3)CC1` [Compound A10, {2-[2-[1-(7,8-Dihydro-6H-pyrimido[5,4-b][1,4]oxazin-4-yl)-piperidin-4-yl]-4-(2-trifluoromethyl-pyridin-4-yl)-imidazol-1-yl]-ethyl}-dimethylamine], the IC50 was 0.026 to 0.1 µM on His-AKT (Full Length) and < 0.025 µM in experiment [1].

On to `COc1cc(-c2cn(CCN(C)C)c(C3CCN(c4ncnc5c4CCN5)CC3)n2)ccc1F` [Compound A25, {2-[2-[1-(6,7-Dihydro-5H-pyrrolo[2,3-d]pyrimidin-4-yl)-piperidin-4-yl]-4-(4-fluoro-3-methoxy-phenyl)-imidazol-1-yl]-ethyl}-dimethylamine], for which the half-maximal inhibitory concentration (IC50) (on His-AKT (Full Length); in experiment [1]) was < 0.025 µM throughout.

For `Cc1cc(-c2cn(CCN3CCC3)c(C3CCN(c4ncnc5c4NC(=O)CN5)CC3)n2)ccc1F` [Compound A42, 4-{4-[4-(4-fluoro-3-methyl-phenyl)-1-(2-azetidin-1-yl-ethyl)-1H-imidazol-2-yl]-piperidin-1-yl}-7,8-dihydro-5H-pteridin-6-one], the figures for the half-inhibitory concentration (IC50) (on His-AKT (Full Length); in experiment [1]) were 0.026 to 0.1 µM and < 0.025 µM, respectively.

Consider `Cc1cccc(-c2cn(CCN3CCCC3)c(C3CCN(c4ncnc5c4NC(=O)CN5)CC3)n2)c1` [Compound A62, 4-{4-[4-(3-MethylPhenyl)-1-(2-pyrrolidin-1-yl-ethyl)-1H-imidazol-2-yl]-piperidin-1-yl}-7,8-dihydro-5H-pteridin-6-one], for which the IC50 (on His-AKT (Full Length); in experiment [1]) was 0.026 to 0.1 µM each time.

`CN(C)CCn1cc(-c2ccc(F)cc2)nc1C1CCN(c2ncnc3c2NC(=O)CN3)CC1` [Compound A50, 4-{4-[4-(4-FluoroPhenyl)-1-(2-dimethylamin-1-yl-ethyl)-1H-imidazol-2-yl]-piperidin-1-yl}-7,8-dihydro-5H-pteridin-6-one]: the IC50 on His-AKT (Full Length) is 0.501 to 1 µM; in experiment [1], 0.101 to 0.5 µM.

For `CN(C)CCn1cc(-c2ccc(F)c(Cl)c2)nc1C1CCN(c2ncnc3c2CCN3)CC1` [Compound A26, (2-{4-(3-Chloro-4-fluoro-phenyl)-2-[1-(6,7-dihydro-5H-pyrrolo[2,3-d]pyrimidin-4-yl)-piperidin-4-yl]-imidazol-1-yl}-ethyl)-dimethylamine], the half-maximal inhibitory concentration (IC50) (at His-AKT (Full Length); in experiment [1]) was < 0.025 µM in each case.

Consider `CN(C)CCn1cc(-c2ccc(F)c(C(F)(F)F)c2)nc1C1CCN(c2ncnc3c2CCN3)CC1` [Compound A3, 2-(2-(1-(6,7-dihydro-5H-pyrrolo[2,3-d]pyrimidin-4-yl)piperidin-4-yl)-4-(4-fluoro-3-(trifluoromethyl)phenyl)-1H-imidazol-1-yl)-N,N-dimethylethanamine], for which the 50% inhibitory concentration (IC50) (at His-AKT (Full Length); in experiment [1]) was < 0.025 µM each time.

As for `O=C1CNc2ncnc(N3CCC(c4nc(-c5ccnc(C6CC6)c5)cn4CCN4CCC4)CC3)c2N1` [Compound A44, 4-{4-[1-(2-azetidin-1-yl-ethyl)-4-(2-cyclopropyl-pyridin-4-yl)-1H-imidazol-2-yl]-piperidin-1-yl}-7,8-dihydro-5H-pteridin-6-one], the IC50 was 0.101 to 0.5 µM on His-AKT (Full Length) and < 0.025 µM in experiment [1].

Take `O=C1CNc2ncnc(N3CCC(c4nc(C(F)(F)F)cn4CCN4CCCC4)CC3)c2N1` [Compound A63, 4-{4-[trifluoromethyl-1-(2-pyrrolidin-1-yl-ethyl)-1H-imidazol-2-yl]-piperidin-1-yl}-7,8-dihydro-5H-ptericlin-6-one]: the IC50 (at His-AKT (Full Length); in experiment [1]) was > 1 µM in each case.

In the case of `Cc1cc(-c2cn(CCN(C)C)c(C3CCN(c4ncnc5c4CCCN5)CC3)n2)ccc1F` [Compound A33, (2-{4-(4-Fluoro-3-methyl-phenyl)-2-[1-(5,6,7,8-tetrahydro-pyrido[2,3-d]pyrimidin-4-yl)-piperidin-4-yl]-imidazol-1-yl}-ethyl)-dimethylamine], the IC50 (at His-AKT (Full Length); in experiment [1]) was < 0.025 µM each time.
